In brackets after ≈: the same amount, converted by molar mass.
How the values were obtained:
[1] = system: Staphylococcus aureus ATCC 29213; test: antimicrobial serial microdilution, S. aureus; format: cell-based; conditions: for MIC: Staphylococcus aureus, ATCC29213, serial microdilution, 37 °C, 24 h
Description: (§1) The in vitro antifungal and antimicrobial activities were determined by testing the Schiff bases against the fungi Saccharomyces cerevisiae, Candida albicans, and Aspergillus niger and the bacteria Staphylococcus aureus, Enterococcus faecalis (Gram-positive), Pseudomonas aeruginosa, and Escherichia coli (Gram-negative).
(§2) The bacterial inoculum was prepared by emulsifying overnight colonies from an agar medium in broth (Mueller–Hinton broth). The suspensions were adjusted to a final organism density of 5 × 10^5 colony former units (cfu)/mL. […] The emulsifying of A. niger cultures was done by pouring 5 mL of saline and 0.1% of polysorbate 80 over the Petri dishes. Then, 100 µL of this suspension were diluted in 5 mL of saline and adjusted to an optical density of 0.1 at 530 nm. For S. cerevisiae, fresh exponential YPAD (yeast extract 1%, peptone 2%, adenine 0.004%, […]) cultures were adjusted to an optical density of 0.5 at 600 nm, and then diluted to the equivalent of 1 × 10^4 cells/mL (10^−3 dilution). Stock solutions of Schiff bases were prepared by dissolving them in DMSO at 10 mg/mL. […] The range of concentrations used was empirically selected for each organisms and the Schiff base. Drug sensitivities were assayed by serial dilutions in 96-well plates as previously described. A row with media and cells but without drug was the positive control. The blank was done by preparing a row with media and drugs, but without cells. Plates were fitted with a tight lid before incubation to prevent desiccation. […] The minimum bactericidal concentration (MBC) and fungicidal concentration (MFC) were determined by spreading 100 µL of culture from each well onto a plate (Mueller–Hinton agar for bacteria, Sabouraud dextrose agar for fungi except S. cerevisiae, and YPAD for S. cerevisiae).

[2] = DPPH radical scavenging assay; format: biochemical; conditions: for IC50: 30 min, room temperature, dark, absorbance 515 nm
Description: This was used immediately. The experimental procedure was adapted from the literature. Briefly, in a 96-well plate, 100 µL of solution of DPPH (2, 2-diphenyl-1-picrylhydrazyl) radical (0.2 mM in methanol) was added to 100 µL of methanolic solutions of 3a–j, 4, or 5, prepared as serial two-fold dilutions from the stock solution. Standards were also prepared in the same concentrations.
The percentage of DPPH scavenging was then calculated by using the following formula: % DPPH scavenging=100∗Asample+DPPH−Asample blank/ADPPH−Asolvent

RAW 264.7 cells = test: cell viability, MTT dye assay; format: cell-based, murine; conditions: RAW 264.7, exposure to 300 µM (limited solubility), 48 h
Description: The specificity and selectivity for the pathogen target is a key point for any potential drug.
The medium was renewed once a week. The viability was determined using MTT (thiazolyl blue tetrazolium bromide) dye assay as described previously for leishmanicidal activity assessment, with some variations. Here, 5 × 10^4 cells/well in a final volume of 100 µL were deposited into a 96-well plate in triplicate. Saponin (2 and 4 mg/mL) and untreated cells were used as the positive control and negative control, respectively. Schiff bases were dissolved in DMSO to obtain different serial concentrations (0.01–2000 µM). […] Cells were pelleted by centrifugation at 4400 rpm for 10 minutes and the media was removed. Next, 100 µL/well of DMSO were added and the absorbance at 570 nm was recorded. A reference wavelength of 630 nm was used for background subtraction.

[3] = system: Enterococcus faecalis ATCC 29212; test: antimicrobial serial microdilution, E. faecalis; format: cell-based; conditions: for MIC: Enterococcus faecalis, ATCC29212, serial microdilution, 37 °C, 24 h
Description: as §1, §2

[4] = system: Escherichia coli ATCC 25922; test: antimicrobial serial microdilution, E. coli; format: cell-based
Description: as §1, §2

P. aeruginosa ATCC 27853 = test: antimicrobial serial microdilution, P. aeruginosa; format: cell-based; conditions: Pseudomonas aeruginosa, ATCC27853, 37 °C, 24 h
Description: as §1, §2

[5] = system: Aspergillus niger ATCC 6275; test: antimicrobial serial microdilution, A. niger; format: cell-based; conditions: for MIC: Aspergillus niger, ATCC6275, serial microdilution, 96-well plates, 35 °C, 48 h, max 2% DMSO
Description: as §1, §2

[6] = system: Candida albicans ATCC 10231; test: antimicrobial serial microdilution, C. albicans; format: cell-based; conditions: for MIC: Candida albicans, ATCC10231, serial microdilution, 35 °C, 48 h
Description: as §1, §2

[7] = system: S. cerevisiae (backgrounds W303 and BY4741); test: antimicrobial serial microdilution, S. cerevisiae; format: cell-based, Saccharomyces cerevisiae; conditions: for MIC: read-out: MIC S. cerevisiae
Description: as §1, §2

[8] = system: promastigotes from L. mexicana (M379); test: leishmanicidal activity, MTT colorimetric assay; format: cell-based; conditions: Leishmania mexicana, 48 h exposure, 1% DMSO
Description: Leishmanicidal activities of all Schiff bases were evaluated by measuring promastigote mitochondrial activity using MTT colorimetric assay as described previously. […] The medium was renewed every four days. Parasite density was determined in a Neubauer chamber.
Into each well of a 96-well cell culture dish was dispensed 1 × 10^6 parasites. A stock solution of each of the Schiff Base was prepared in DMSO, and serial dilutions were added to the parasite suspension, keeping the solvent concentration at 1%. The final volume was 100 µL for each well and triplicate conditions were carried out. Pentamidine treatment (100 µg/mL) and untreated parasites were used as positive control and negative control, respectively. After exposure to the compounds for 48 h in culture medium, 10 µL of a solution of 5 mg/mL MTT dissolved in PBS was added to each well. […] Later, the plate was centrifuged at 4400 rpm for 10 min and the culture medium was then aspirated. Next, 100 µL of DMSO were added into each well to solubilize the formazan and the plate was shaken for 5 min. The colored formazan salt was measured by recording changes in absorbance at 570 nm using a microplate reader, a BioTek Synergy HT spectrophotometer. A reference wavelength of 630 nm was used to subtract background. Optical densities were analyzed as the quantity of formazan is directly proportional to the number of viable parasites. Data were analyzed with the statistical software GraphPad Prism.

S. cerevisiae [9] = test: biocidal/biostatic evaluation, plating on drug-free media, S. cerevisiae; format: cell-based, Saccharomyces cerevisiae; conditions: 24 h exposure, then plated on media free of drug
Description: as §2, with “cells.” for “cells. Plates were fitted with a tight lid before incubation to prevent desiccation.”

[10] = system: S. cerevisiae wild-type (W303 and BY4741 backgrounds); test: drop test, wild-type yeast; format: cell-based, Saccharomyces cerevisiae
Description: Since the Schiff bases have a limited solubility in dimethyl sulfoxide (DMSO), first, we tested the toxicity of DMSO against the selected microorganism. […] Wild-type cells from W303 background seem to be more resistant, and sensitivity is observed at around 4% DMSO.
(§3) Next, we wanted to evaluate the oxidative activity. To do this, drop test assays were performed with wild-type (W303 and BY4741 backgrounds) and sod1 (BY4741 background) yeast cells in the presence of 200 µg/mL of the analyzed Schiff bases (Figure 3). The SOD1 gene encodes superoxide dismutase 1, an enzyme with a major role in detoxifying ROS species generated during metabolism or because of environmental exposure. sod1 mutant cells are unprotected against oxidative agents, decreasing survival in their presence. […] Also, wild-type cells are shown as control, unaffected by the Schiff bases.
(§4) For the drop test with S. cerevisiae, wild-type strain (background W303), and wild type and sod1 mutant cells (background BY4741) were grown overnight in YPAD media until an optical density of 0.5 at 600 nm was reached (equivalent to 1 × 10^7 cells/mL). Three serial dilutions were prepared and 5 µL of each was spotted onto a plate (approximately 1 × 10^5, 1 × 10^4, 1 × 10^3, and 1 × 10^2 cells/spot). YPAD plates were supplemented with 200 µg/mL of each Schiff base, and one plate supplemented with 2% DMSO and one plate with YPAD without any drug were used as controls. Plates were incubated at 25 °C for 24, 48, and 72 h.

[11] = system: S. cerevisiae sod1 mutant cells (background BY4741); test: drop test, sod1 mutant yeast; format: cell-based, Saccharomyces cerevisiae; conditions: 200 µg/mL, 48 h, 25 °C, compared to control
Description: as §3, §4

[12] = system: S. cerevisiae wild type (BY4741); test: growth inhibition (OD600) of wild-type yeast, oxidative effect; format: cell-based, Saccharomyces cerevisiae; conditions: unit not given
Description: (§5) Next, we wanted to evaluate the oxidative activity. To do this, drop test assays were performed with wild-type (W303 and BY4741 backgrounds) and sod1 (BY4741 background) yeast cells in the presence of 200 µg/mL of the analyzed Schiff bases (Figure 3). The SOD1 gene encodes superoxide dismutase 1, an enzyme with a major role in detoxifying ROS species generated during metabolism or because of environmental exposure. sod1 mutant cells are unprotected against oxidative agents, decreasing survival in their presence.
(§6) (A) Drop test of serial dilution of yeast cell cultures (wild type from genetic background W303, wild type from genetic background BY4741, and sod1 mutant from genetic background BY4741) exposed to Schiff bases at 200 µg/mL. A control without drug and with 2% DMSO are included.
as §2

[13] = system: S. cerevisiae sod1 mutant (BY4741); test: growth inhibition (OD600) of sod1 mutant yeast, oxidative effect; format: cell-based, Saccharomyces cerevisiae; conditions: sod1 mutant BY4741, unit not given
Description: as §5, §6, §2

S. cerevisiae [14] = system: S. cerevisiae; parameters: method as in PMID 24028688; conditions: published data; cited from earlier work
[15] = Escherichia coli, ATCC25922, serial microdilution, 37 °C, 24 h
[16] = Saccharomyces cerevisiae, serial microdilution, 35 °C, 48 h

Structure (SMILES): COc1ccc(C=Nc2c(C)n(C)n(-c3ccccc3)c2=O)cc1O [Compound 3e, 4-(3-Hydroxy-4-methoxybenzylideneamino)-1,5-dimethyl-2-phenyl-1H-pyrazol-3(2H)-one]
- MIC [1]: > 200 µg/mL
- IC50 [2]: > 200 µM
- % Live Cells (RAW 264.7 cells): 27.1 ± 0.8%
- MIC [3]: > 200 µg/mL
- MIC [4, 15]: > 200 µg/mL
- MIC (P. aeruginosa ATCC 27853): > 200 µg/mL
- MIC [5]: > 200 µg/mL
- MIC [6]: > 200 µg/mL
- MIC [7, 16]: > 200 µg/mL
- melting point: 246.8 to 247.2 °C
- IC50 [8]: > 200 µM

Structure (SMILES): Cc1c(N=CC=Cc2ccccc2)c(=O)n(-c2ccccc2)n1C [Compound 5, 4-Phenylallylideneamino-1,5-dimethyl-2-phenyl-1H-pyrazol-3(2H)-one]
- MIC [1]: > 200 µg/mL
- IC50 [2]: > 200 µM
- antioxidant activity detected in the DPPH assay ([2]; statement in words): no significant antioxidant activity
- inhibitory mechanism (fungicidal or fungistatic) (S. cerevisiae [9]): fungicidal
- MIC [3]: > 200 µg/mL
- IC50 [4, 15]: 12.4 µg/mL (≈ 39.1 µM)
- MIC [4, 15]: 22.6 ± 14.1 µg/mL (≈ 71.2 µM)
- NIC E. coli ([4]; noninhibitory concentration, serial microdilution, 37 °C, 24 h): 5.1 ± 2.4 µg/mL
- effect on wild-type cells in drop test ([10]; 200 µg/mL, 48 h, 25 °C): unaffected
- MIC (P. aeruginosa ATCC 27853): > 200 µg/mL
- MIC [5]: > 200 µg/mL
- sensitivity of sod1 cells in drop test [11]: sensitive
- MIC [6]: > 200 µg/mL
- IC50 ([7]; Saccharomyces cerevisiae, serial microdilution, 35 °C, 48 h, read-out: IC50 S. cerevisiae (converted)): 22.8 µg/mL (≈ 71.8 µM)
- MIC [7, 16]: 76.7 ± 5.7 µg/mL (≈ 242 µM)
- NIC S. cerevisiae ([7]; noninhibitory concentration, serial microdilution, 35 °C, 48 h): 6.6 ± 0.7 µg/mL
- melting point: 165.5 to 165.9 °C
- IC50 [8]: 81.5 ± 12.5 µM
- NIC Wt [12]: 22.6 ± 0.6
- MIC Wt ([12]; in µg/mL): 65.2 ± 0.2
- NIC sod1 [13]: 19.5 ± 0.8
- MIC sod1 ([13]; in µg/mL): 39.4 ± 0.9

Structure (SMILES): C[S+](C)[O-] [DMSO, dimethyl sulfoxide]
- IC50 DMSO S. aureus ([1]; DMSO toxicity): 20.36 ± 5.2%
- MIC DMSO S. aureus ([1]; DMSO toxicity): 32.64 ± 6.9%
- NIC DMSO S. aureus ([1]; DMSO toxicity): 8.52 ± 0.9%
- IC50 DMSO E. faecalis ([3]; DMSO toxicity): 8.66 ± 0.6%
- MIC DMSO E. faecalis ([3]; DMSO toxicity): 20.02 ± 1.3%
- NIC DMSO E. faecalis ([3]; DMSO toxicity): 3.68 ± 0.2%
- DMSO concentration significantly toxic for S. cerevisiae (S. cerevisiae [14]): over 2%
- NIC DMSO E. coli ([4]; DMSO toxicity): 11.95 ± 2.9%
- DMSO concentration at which cells begin to show diminished viability (drop test) ([10]; wild-type cells, BY4741 strain): ≥ 3%
- DMSO concentration at which sensitivity is observed (drop test) ([10]; wild-type cells, W303 background): around 4%
- IC50 DMSO A. niger ([5]; DMSO toxicity): 4.36 ± 2.0%
- MIC DMSO A. niger ([5]; DMSO toxicity): 19.22 ± 1.3%
- NIC DMSO A. niger ([5]; DMSO toxicity): 1.78 ± 0.4%
- IC50 DMSO C. albicans ([6]; DMSO toxicity): 8.50 ± 0.5%
- MIC DMSO C. albicans ([6]; DMSO toxicity): 14.98 ± 0.6%
- NIC DMSO C. albicans ([6]; DMSO toxicity): 4.94 ± 0.5%
- IC50 DMSO S. cerevisiae ([7]; DMSO toxicity): 35.62 ± 1.0%
- MIC DMSO S. cerevisiae ([7]; DMSO toxicity): 71.47 ± 1.7%
- NIC DMSO S. cerevisiae ([7]; DMSO toxicity): 5.04 ± 1.1%
